Several values for one entry are separate records, joined by “and”; a condition that tells them apart may be missing. Equal entries are not always repeated. Inconclusive results and toxic doses are left out. No stated cut-off is given here; in the data, active means T/C of 150% or more; inactive means T/C below 125%.
Tested on: L1210 leukemia ip in BDF1 mice, survival T/C
Experiment: NCI In Vivo Anticancer Drug Screen. Data for tumor model L1210 Leukemia (intraperitoneal) in B6D2F1 (BDF1) mice
Details: endpoint: mean survival time, higher = longer survival
In short: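 Value reflects the ratio of survival in compound-treated mice to survival in vehicle-treated controls, with both groups carrying the same transplanted tumor.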

[1] = dose: 100.0 mg/kg/injection, schedule: Q01DX001 (ip), vehicle: saline
[2] = dose: 200.0 mg/kg/injection, schedule: Q01DX001 (ip), vehicle: saline
[3] = dose: 400.0 mg/kg/injection, schedule: Q01DX001 (ip), vehicle: saline
[4] = dose: 100.0 mg/kg/injection, schedule: Q01DX009 (ip), vehicle: Klucel (hydroxypropylcellulose) (HPC)
[5] = dose: 100.0 mg/kg/injection, schedule: Q04DX003 (ip), vehicle: Klucel (hydroxypropylcellulose) (HPC)
[6] = dose: 200.0 mg/kg/injection, schedule: Q01DX009 (ip), vehicle: Klucel (hydroxypropylcellulose) (HPC)
[7] = dose: 200.0 mg/kg/injection, schedule: Q04DX003 (ip), vehicle: Klucel (hydroxypropylcellulose) (HPC)
[8] = dose: 400.0 mg/kg/injection, schedule: Q01DX009 (ip), vehicle: Klucel (hydroxypropylcellulose) (HPC)
[9] = dose: 400.0 mg/kg/injection, schedule: Q04DX003 (ip), vehicle: Klucel (hydroxypropylcellulose) (HPC)
[10] = dose: 12.5 mg/kg/injection, schedule: Q01DX009 (ip), vehicle: saline
[11] = dose: 25.0 mg/kg/injection, schedule: Q01DX009 (ip), vehicle: saline
[12] = dose: 50.0 mg/kg/injection, schedule: Q01DX009 (ip), vehicle: saline
[13] = dose: 50.0 mg/kg/injection, schedule: Q01DX009 (ip), vehicle: saline with Tween-80
[14] = dose: 100.0 mg/kg/injection, schedule: Q01DX009 (ip), vehicle: saline with Tween-80
[15] = dose: 200.0 mg/kg/injection, schedule: Q01DX009 (ip), vehicle: saline with Tween-80
[16] = dose: 100.0 mg/kg/injection, schedule: Q04DX003 (ip), vehicle: saline with Tween-80
[17] = dose: 200.0 mg/kg/injection, schedule: Q04DX003 (ip), vehicle: saline with Tween-80
[18] = dose: 400.0 mg/kg/injection, schedule: Q04DX003 (ip), vehicle: saline with Tween-80

Measured: T/C

O=C1c2c(ccc3ccccc23)CCC1CN1CCCCC1 (stereo unspecified)
inactive: [1] 102 % of control | [2] 108 % of control | [3] 112 % of control

NCCSSSSCCN
inactive: [1] 96 % of control | [2] 105 % of control

CCOC(=O)c1cnc(SC)nc1Oc1ccccc1F
inactive: [4] 105 % of control | [5] 96 % of control | [6] 96 % of control | [7] 119 % of control | [8] 97 % of control | [9] 91 % of control

CCOc1ccc2c(c1)C(C)=CC(C)(C)N2
inactive: [5] 93 % of control | [7] 101 % of control | [9] 121 % of control

Cc1cccnc1NC(=O)/C=C/C(=O)O
inactive: [10] 94 % of control | [11] 100 % of control | [12] 94 % of control

O=C(CC1(O)C(=O)Nc2ccccc21)C12CC3CC(CC(C3)C1)C2 (stereo unspecified)
inactive: [13] 104 % of control | [14] 101 % of control | [15] 96 % of control

CCCCOC(=O)c1cccnc1
inactive: dose: 50.0 mg/kg/injection, schedule: Q04DX003 (ip), vehicle: saline with Tween-80 97 % of control | [16] 94 % of control and 102 % of control | [17] 103 % of control | [18] 91 % of control

C#CC(O)C1OC(C)(C)OC1C1COC(C)(C)O1 (stereo unspecified)
inactive: [5] 97 % of control | [7] 92 % of control | [9] 94 % of control

CCCNC(=O)Nc1ccc(Cl)c(Cl)c1
inactive: [1] 100 % of control | [2] 93 % of control | [3] 92 % of control

O=C(CCCN1CCC2(CC1)C(=O)NCN2c1ccccc1)c1ccccc1
inactive: dose: 10.0 mg/kg/injection, schedule: Q04DX003 (ip), vehicle: Klucel (hydroxypropylcellulose) (HPC) 96 % of control | dose: 20.0 mg/kg/injection, schedule: Q04DX003 (ip), vehicle: Klucel (hydroxypropylcellulose) (HPC) 98 % of control | dose: 40.0 mg/kg/injection, schedule: Q04DX003 (ip), vehicle: Klucel (hydroxypropylcellulose) (HPC) 101 % of control

CC(C)(C)C1CCC(NC(=O)C(Cl)(Cl)Cl)CC1 (stereo unspecified)
inactive: dose: 6.0 mg/kg/injection, schedule: Q01DX009 (ip), vehicle: Klucel (hydroxypropylcellulose) (HPC) 100 % of control | dose: 12.0 mg/kg/injection, schedule: Q01DX009 (ip), vehicle: Klucel (hydroxypropylcellulose) (HPC) 107 % of control | dose: 25.0 mg/kg/injection, schedule: Q01DX009 (ip), vehicle: Klucel (hydroxypropylcellulose) (HPC) 96 % of control and 105 % of control | dose: 25.0 mg/kg/injection, schedule: Q04DX003 (ip), vehicle: Klucel (hydroxypropylcellulose) (HPC) 94 % of control | dose: 50.0 mg/kg/injection, schedule: Q01DX009 (ip), vehicle: Klucel (hydroxypropylcellulose) (HPC) 86 % of control | dose: 50.0 mg/kg/injection, schedule: Q04DX003 (ip), vehicle: Klucel (hydroxypropylcellulose) (HPC) 97 % of control | [5] 96 % of control

CC(=O)c1ccc2c3c(cccc13)CC2
inactive: [14] 102 % of control | [16] 88 % of control | [15] 98 % of control | [17] 104 % of control | dose: 400.0 mg/kg/injection, schedule: Q01DX009 (ip), vehicle: saline with Tween-80 101 % of control | [18] 97 % of control

CC1(C)C2CC3C(=CCCC3(Cl)C#N)C1C2 (stereo unspecified)
inactive: [4] 98 % of control | [5] 106 % of control | [6] 102 % of control | [7] 101 % of control | [8] 93 % of control | [9] 97 % of control

O=C(O)C(=O)NCc1cnccn1
inactive: dose: 25.0 mg/kg/injection, schedule: Q01DX009 (ip), vehicle: water 96 % of control | dose: 50.0 mg/kg/injection, schedule: Q01DX009 (ip), vehicle: water 97 % of control | dose: 100.0 mg/kg/injection, schedule: Q04DX003 (ip), vehicle: water 96 % of control

COc1ccc(/C=N/n2c(=O)[nH]nc(C)c2=O)c(OC)c1OC
inactive: dose: 100.0 mg/kg/injection, schedule: Q01DX009 (ip), vehicle: acetone 96 % of control | [16] 112 % of control | dose: 200.0 mg/kg/injection, schedule: Q01DX009 (ip), vehicle: acetone 93 % of control | [17] 117 % of control | dose: 400.0 mg/kg/injection, schedule: Q01DX009 (ip), vehicle: acetone 102 % of control | [18] 109 % of control

N=C(N)N=Nc1c(O)[nH]c2ccccc12
inactive: dose: 15.0 mg/kg/injection, schedule: Q01DX Z (ip), vehicle: saline 103 % of control | dose: 30.0 mg/kg/injection, schedule: Q01DX Z (ip), vehicle: saline 100 % of control | dose: 37.5 mg/kg/injection, schedule: Q01DX Z (oral), vehicle: carboxymethylcellulose (CMC) 102 % of control | dose: 60.0 mg/kg/injection, schedule: Q01DX Z (ip), vehicle: saline 94 % of control | dose: 75.0 mg/kg/injection, schedule: Q01DX Z (oral), vehicle: carboxymethylcellulose (CMC) 98 % of control | dose: 120.0 mg/kg/injection, schedule: Q01DX Z (ip), vehicle: saline 90 % of control | dose: 120.0 mg/kg/injection, schedule: Q01DX Z (oral), vehicle: other 95 % of control | dose: 150.0 mg/kg/injection, schedule: Q01DX Z (oral), vehicle: carboxymethylcellulose (CMC) 105 % of control | dose: 240.0 mg/kg/injection, schedule: Q01DX Z (oral), vehicle: other 98 % of control

OCC(F)(F)F
inactive: dose: 50.0 mg/kg/injection, schedule: Q01DX001 (ip), vehicle: saline 98 % of control | [1] 110 % of control | [2] 102 % of control | [3] 108 % of control

CN=C1N[N+]2=C(C)CCCC2(C)S1 (stereo unspecified)
inactive: dose: 100.0 mg/kg/injection, schedule: Q04DX003 (ip), vehicle: saline 101 % of control | dose: 200.0 mg/kg/injection, schedule: Q04DX003 (ip), vehicle: saline 89 % of control

CCCCN(CCCC)C(=N)C(=N)N(CCCC)CCCC
inactive: dose: 50.0 mg/kg/injection, schedule: Q04DX002 (ip), vehicle: saline with Tween-80 100 % of control | dose: 100.0 mg/kg/injection, schedule: Q04DX002 (ip), vehicle: saline with Tween-80 100 % of control

CCOC(=O)CNc1ccc(F)cc1Cl
inactive: dose: 100.0 mg/kg/injection, schedule: Q04DX002 (ip), vehicle: Klucel (hydroxypropylcellulose) (HPC) 105 % of control | dose: 200.0 mg/kg/injection, schedule: Q04DX002 (ip), vehicle: Klucel (hydroxypropylcellulose) (HPC) 101 % of control | dose: 400.0 mg/kg/injection, schedule: Q04DX002 (ip), vehicle: Klucel (hydroxypropylcellulose) (HPC) 105 % of control

COC1C(c2ccccc2)NC(=O)C(Br)(C#N)C1c1ccccc1 (stereo unspecified)
inactive: dose: 12.5 mg/kg/injection, schedule: Q01DX009 (ip), vehicle: saline with Tween-80 86 % of control | dose: 25.0 mg/kg/injection, schedule: Q01DX009 (ip), vehicle: saline with Tween-80 86 % of control | [13] 86 % of control

NC(CCCCNC(c1ccccc1)(c1ccccc1)c1ccccc1)C(=O)O (stereo unspecified)
inactive: [10] 102 % of control | [11] 101 % of control | [12] 101 % of control | dose: 100.0 mg/kg/injection, schedule: Q01DX009 (ip), vehicle: saline 97 % of control

C/C(CCO)=N/N=C(N)N
inactive: dose: 15.0 mg/kg/injection, schedule: Q01DX Z (ip), vehicle: methylcellulose (MC) 97 % of control | dose: 30.0 mg/kg/injection, schedule: Q01DX Z (ip), vehicle: methylcellulose (MC) 109 % of control | dose: 30.0 mg/kg/injection, schedule: Q01DX Z (oral), vehicle: methylcellulose (MC) 97 % of control | dose: 60.0 mg/kg/injection, schedule: Q01DX Z (oral), vehicle: methylcellulose (MC) 100 % of control

C=C1C(=O)O[C@H]2C1[C@H](OC(=O)/C(C)=C\COC(C)=O)C[C@]1(CO1)[C@@H]1[C@H](O)[C@H]3O[C@@]3(C)[C@@H]12 (stereo partly specified)
inactive: dose: 25.0 mg/kg/injection, schedule: Q04DX002 (ip), vehicle: other 105 % of control | dose: 50.0 mg/kg/injection, schedule: Q04DX002 (ip), vehicle: other 103 % of control | dose: 100.0 mg/kg/injection, schedule: Q04DX002 (ip), vehicle: other 97 % of control and 100 % of control

NC(Cc1cnc(N=Nc2ccc(C(=O)O)cc2)[nH]1)C(=O)O (stereo unspecified)
inactive: [13] 100 % of control | [14] 95 % of control | [15] 103 % of control

O=C1Nc2c(ccc3ccccc23)/C1=C/c1ccccc1
inactive: [16] 100 % of control | [17] 100 % of control | [18] 97 % of control
